# Source: patent US20250302968A1, “RADIATION CLEAVED DRUG-CONJUGATE LINKERS ENABLE LOCAL PAYLOAD RELEASE SCLEROSIS” (The General Hospital Corporation, priority 2022, published 2025)
# Read-outs that look alike come from different tables or passages of the source. Where a SMILES comes first, the peptide text is derived from it. [ ]: non-standard residue; d: D form. The star is where a group is joined. Dolaproine = CO[C@@H]([C@@H]1CCCN1)[C@@H](C)C(=O)O; Dil = CC[C@H](C)[C@H](NC)[C@@H](CC(=O)O)OC; X1 = C[C@@H](N*)[C@@H](O)c1ccccc1; NMeV = CN[C@H](C(=O)O)C(C)C
# Tests used:
# [1] = Stability of prodrugs in PBS at 37° C., LC-MS; type: physicochemical; details: buffer
# Protocol: Prodrugs were prepared to concentrations of 10 μM in PBS (pH 7.4, <2% DMF) and incubated at 37° C. to determine the relative stability under physiological conditions (FIG. 14). Aliquots of these solutions were removed after varying time intervals and analyzed via LC-MS on a Waters 3100 Mass Detector with an Xterra MS C18 Column to measure the amount of each prodrug remaining in solution. All measurements were made in triplicate and analyzed in Graphpad Prism to determine the half-lives (991, 257, and 2252 hours were determined for compounds 8, 9, and 10 respectively).
# [2] = system: Bone marrow-derived macrophages (BMDM) from IL12-eYFP reporter mice; experiment: Cellular immunostimulation of BMDM (p-NFkB and IL12-eYFP fluorescence); type: cell-based; details: 100 nM, 48 hours
# Protocol: Bone marrow-derived macrophages (BMDM) were generated from IL12-eYFP reporter mice by dissecting the femurs, flushing out the bone marrow, and culturing isolate with M-CSF supplemented growth media (Luthria G, et al. Nat Commun. 2020; 11:3521]. BMDM were plated in a 96 well plate at a concentration of 5,000 cells per well. These wells were then treated with either free gardiquimod, pATFB-SIL-Mal-Gard (13), or prodrug 13 that had been treated with 10 μM tris(2-carboxyethyl) phosphine) to chemically release the free gardiquimod (all drugs at a concentration of 100 nM). The cells were then incubated for 48 hours then fixed with 4% PFA and stained with Phospho-NF-κB p65 (Ser536) (93H1) Rabbit mAb and AF647 Goat anti-Rabbit IgG. Images were captured on a modified BX63 (Olympus) inverted microscopy system equipped with an environmental chamber and robotic stage, using excitation/emission wavelengths of 513/527 and 640/670 for eYFP and Cy5, respectively. The images were then quantified using ImageJ software (NIH, USA) to determine relative protein expression.
# [3] = system: 8505c (human anaplastic thyroid cancer); experiment: Cytotoxicity assay, 72 hour incubation, PrestoBlue (resazurin-based); type: cell-based; details: for IC50: Homo sapiens
# Protocol: Experiments with cancer cells were performed to assess the degree to which the disclosed linker strategy shields biological activity of the drug payload under un-irradiated conditions, and restore drug activity once irradiated.
# All cells were routinely evaluated for mycoplasma contamination and cultured following provider guidelines using 10% FBS (Bio-Techne Sales), 100 IU mL-1 penicillin, 100 μg mL-1 streptomycin (Invitrogen), with incubation at 37° C. and 5% CO2. Cytotoxicity experiments were performed by seeding 5,000 cells per well overnight in a 96-well plate (Corning) before the addition of each drug/conjugate. Empty wells with only media or vehicle-treated cells were used as controls. After addition of the corresponding drugs and a 72 hour incubation, the number of live cells was determined by PrestoBlue (ThermoFisher, USA) staining according to the provider's protocols.
# [4] = Drug payload stability after X-ray irradiation, LC/MS chromatograph analysis; type: physicochemical; details: 8 Gy X-ray irradiation, 100 uM in PBS, degassed
# Protocol: FIG. 5. Illustrates drug payload stability after X-ray irradiation. […] Both drug solutions were prepared to a concentration of 100 uM in PBS and analyzed before and after irradiation. MMAE chromatographs were obtained via ELSD and DOX chromatographs were obtained via UV absorbance scan (200-800 nm).
# No difference in cleavage efficiency was found between gamma irradiation from a sealed 137Cs source (primarily 662 keV photons at a dose rate of roughly 0.5 Gy/min), and X-ray irradiation (from a 4000 W tube generating 320 keV photons at 3 Gy/min), and little background release was observed under un-irradiated conditions (FIG. 4).
# 8505c cell line = experiment: Subcellular localization of DOX by intrinsic fluorescence imaging; type: cell-based, human; details: ATC cells (8505c)
# Protocol: Subcellular localization of DOX in the 8505c cell line was measured using a modified BX63 (Olympus) inverted microscopy system equipped with an environmental chamber and robotic stage. DOX images were collected using a 40× air objective (PLAPO 40×/0.95 numerical aperture), with excitation and emission wavelengths of 489 nm and 508 nm, respectively. All images were processed using cellSens Dimension 3.1.1 (Olympus, USA) and ImageJ 1.53k (NIH, USA) software. Nuclear to cytoplasm fluorescence ratios were calculated and plotted using Excel (Microsoft) and Prism (GraphPad). 20 μM concentration of free (or released) DOX was used, and unirradiated prodrug used the same total (caged and uncaged) DOX concentration as used in the irradiated sample. Following treatment for 72 hours, live cells were immediately imaged by confocal microscopy.
# [5] = 10 μM in PBS (pH 7.4, <2% DMF), 37° C., read-out: half-life (converted)
smiles,measurement,setting,value
CC[C@@H](C)[C@H]([C@H](CC(=O)N1CCC[C@@H]1[C@@H](OC)C(C)C(=O)N[C@@H](C)[C@H](O)c1ccccc1)OC)N(C)C(=O)[C@H](CC(=O)[C@H](C(C)C)N(C)C(=O)OC(C(=O)OC)c1ccc(NC(=O)OCc2c(F)c(F)c(N=[N+]=[N-])c(F)c2F)cc1)C(C)C (some centres unmarked) [Compound 8],half-life at 10 μM,[1]; [5],41.3 days
COC(=O)C(OC(=O)N[C@H]1C[C@H](O[C@H]2C[C@](O)(C(=O)CO)Cc3c(O)c4c(c(O)c32)C(=O)c2c(OC)cccc2C4=O)O[C@@H](C)[C@H]1O)c1ccc(NC(=O)OCc2c(F)c(F)c(N=[N+]=[N-])c(F)c2F)cc1 (some centres unmarked) [Compound 9],half-life at 10 μM,[1]; [5],10.7 days
CCN(Cc1nc2c(N)nc3ccccc3c2n1CC(C)(C)O)C(=O)OC(C(=O)OC)c1ccc(NC(=O)OCc2c(F)c(F)c(N=[N+]=[N-])c(F)c2F)cc1 (centres unmarked) [Compound 10],"immunostimulatory behavior compared to free gardiquimod, caged",[2],attenuated immunostimulatory behavior
same,immunostimulatory activity after chemical uncaging,[2]; prodrug treated with 10 μM TCEP,restores the immunostimulatory activity
same,half-life at 10 μM,[1]; pH 7.4,93.8 days
COC(=O)C(OC(=O)N[C@@H]1C[C@@H](O[C@H]2C[C@](O)(C(=O)CO)Cc3c(O)c4c(c(O)c32)C(=O)c2c(OC)cccc2C4=O)O[C@H](C)[C@H]1O)c1ccc(NC(=O)OCc2cc(OC)cc(OC)c2)cc1 (some centres unmarked) [DMBA-SIL-DOX],IC50,"[3]; 8505C, light or radiation study, read-out: concentration at which drug inhibited 50% of ATC cell growth",> 10000 nM
same,fold higher IC50 than that observed for the parent drug,"[3]; un-irradiated, 8505c ATC cells",roughly 100 fold
"CC[C@H](C)[C@@H]([C@@H](CC(=O)N1CCC[C@H]1[C@H](OC)[C@@H](C)C(=O)N[C@H](C)[C@@H](O)c1ccccc1)OC)N(C)C(=O)[C@@H](NC(=O)[C@@H](NC)C(C)C)C(C)C [MMAE, monomethyl auristatin E] (H-[NMeV]V[Dil][Dolaproine]-X1)",effect of irradiation on the drug payload itself,[4],Neither MMAE nor doxorubicin themselves were substantially affected
COc1cccc2c1C(=O)c1c(O)c3c(c(O)c1C2=O)C[C@@](O)(C(=O)CO)C[C@@H]3O[C@H]1C[C@H](N)[C@H](O)[C@H](C)O1 [doxorubicin],effect of irradiation on the drug payload itself,[4],Neither MMAE nor doxorubicin themselves were substantially affected
same,"subcellular distribution of DOX fluorescence, free drug",8505c cell line,nuclear accumulation
same,IC50,"[3]; 8505c ATC cells, read-out: IC50 of parent drug",94 nM
